pKd: −log10 of the molar value.
Assays:
[1] = molecular target: T1, MEK2 (Homo sapiens, UniProt P36507); test: SPR (Biacore T200, CM5 chip); also pull-down, DARTS and in vitro kinase assay; type: binding
T1 construct: gene MAP2K2; active MEK2 human recombinant protein

[2] = molecular target: CDK4 (Homo sapiens, UniProt P11802); test: pull-down with domperidone-Sepharose 4B beads and DARTS in KYSE150/KYSE450 lysates; type: cell-based
[3] = molecular target: T2, MEK1 (Homo sapiens, UniProt Q02750); test: SPR (Biacore T200, CM5 chip); also pull-down, DARTS and in vitro kinase assay; type: binding
T2 construct: gene MAP2K1; active MEK1 human recombinant protein
T2 sequence (Q02750 whole entry): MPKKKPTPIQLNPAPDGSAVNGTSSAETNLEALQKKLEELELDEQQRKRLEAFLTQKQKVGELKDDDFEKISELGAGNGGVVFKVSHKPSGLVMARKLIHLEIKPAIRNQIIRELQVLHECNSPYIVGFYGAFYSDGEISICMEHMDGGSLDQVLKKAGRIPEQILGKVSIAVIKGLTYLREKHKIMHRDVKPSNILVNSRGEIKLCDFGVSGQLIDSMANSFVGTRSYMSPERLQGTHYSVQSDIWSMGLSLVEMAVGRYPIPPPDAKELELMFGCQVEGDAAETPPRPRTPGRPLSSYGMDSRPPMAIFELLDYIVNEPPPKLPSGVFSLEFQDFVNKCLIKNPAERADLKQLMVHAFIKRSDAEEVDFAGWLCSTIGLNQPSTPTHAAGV

Chain of CDK4 (P11802 2-303): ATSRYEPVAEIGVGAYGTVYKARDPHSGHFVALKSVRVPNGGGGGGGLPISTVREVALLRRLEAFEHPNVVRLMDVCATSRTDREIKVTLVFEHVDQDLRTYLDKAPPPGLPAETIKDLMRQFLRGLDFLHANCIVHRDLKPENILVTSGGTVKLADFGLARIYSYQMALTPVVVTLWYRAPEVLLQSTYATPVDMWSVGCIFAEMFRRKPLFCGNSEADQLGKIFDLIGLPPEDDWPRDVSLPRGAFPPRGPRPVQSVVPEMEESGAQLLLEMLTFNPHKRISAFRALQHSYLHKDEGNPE
T1 sequence (P36507 whole entry): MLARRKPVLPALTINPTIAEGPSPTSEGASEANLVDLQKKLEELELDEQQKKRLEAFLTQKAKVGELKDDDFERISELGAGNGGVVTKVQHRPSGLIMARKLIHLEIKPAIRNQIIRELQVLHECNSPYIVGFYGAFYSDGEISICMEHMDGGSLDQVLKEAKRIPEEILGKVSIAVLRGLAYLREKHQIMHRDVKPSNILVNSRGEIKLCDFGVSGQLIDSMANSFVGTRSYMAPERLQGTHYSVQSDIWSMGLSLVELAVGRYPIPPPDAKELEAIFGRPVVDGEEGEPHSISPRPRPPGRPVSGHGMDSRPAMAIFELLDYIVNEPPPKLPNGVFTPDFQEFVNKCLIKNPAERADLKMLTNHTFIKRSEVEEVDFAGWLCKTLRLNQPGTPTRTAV

`O=c1[nH]c2ccccc2n1CCCN1CCC(n2c(=O)[nH]c3cc(Cl)ccc32)CC1` [compound 9, Domperidone] was tested, and the pKd [1] was 5.18, the “pull-down with domperidone-Sepharose 4B beads and DARTS in KYSE150/KYSE450 lysat” value [2] was “DARTS assay also validated that domperidone could directly interact with MEK1, MEK2 and CDK4 ex vivo” and the pKd [3] was 5.21.

Source: paper PMC10964662, “Domperidone inhibits cell proliferation via targeting MEK and CDK4 in esophageal squamous cell carcinoma” (Cancer Cell International, 2024)
